# pIC50: −log10 of the molar value.
# Tests used:
# [1] = Hypoglycaemic activity: change in blood glucose after oral gavage; assay type: in vivo, Sprague Dawley rats; settings: 1.6 mg/kg oral gavage, normal fed male rats
# Experimental: The biological activity of representative compounds of the invention was evaluated by means of several different tests. The activity of compounds of this invention as hypoglycaemic agents was measured and compared with the activity of the known compound of Example 1, using methods described in the literature. Thus normal, fed male Sprague Dawley rats weighing between 275 and 375 g were studied for changes in blood sugar levels and alterations to mean arterial blood pressure following administration of representative compounds of the invention suspended in a 5% solution of gum acacia by oral gavage at a dose of 1.6 mg/kg. The concentration of each compound was 4 mg in 10 ml, so that each rat received 1.1-1.5 ml to obtain the desired dose on a body weight basis. The blood sugar levels were recorded for each rat immediately prior to administration, and at 1, 2, and 3 hr following administration of the test compounds. Blood glucose levels were determined on blood samples taken from the tail, and analysed on an Ames blood glucometer, model 5626, and Ames, 2627 blood glucose strips (number 2). […] It is apparent that generally the heterocyclic sulphonylthioureas have greater activity than the sulphonylureas. Without wishing to be bound by any proposed mechanism for the observed effect, we believe that this may be associated with differences in lipid permeability.
# [2] = system: MCF-7 human mammary carcinoma cells; settings: concentration-dependent; Woodfork et al, 1995; read-out: IC50, inhibition of cell proliferation; cited from earlier work
# [3] = system: MCF-7 mammary carcinoma cells; assay: Thymidine uptake ([methyl-3H] thymidine incorporation into DNA); assay type: cell-based, human; settings: 100 μM (printed 100 μH / 100 mM), compared to control group; Glibenclamide n=3, Compound 1-24 n=4
# Experimental: Incorporation of [methyl-3H] thymidine into DNA was measured as described by Murphy and Lazarus (1983), using MCF-7 mammary carcinoma cells treated with compound 1-24 (100 μH) and a control group. The growth medium from cells cultured as described in Example 24 was aspirated from the wells, and 1 mL of fresh growth medium containing 1 μCi [3H]-thymidine (Amersham) was added to each well After 4 hours incubation, the medium was aspirated and the monolayers were washed three times with ice cold phosphate buffered saline (ICN). This was followed by three washes with 10% (v/v) ice cold trichloroacetic acid, each of 5 minutes duration. After another three washes with absolute ethanol at room temperature of 5 minutes duration, the monolayer was dried at room temperature for 10 minutes. The monolayer was […] after incubation for 12 hours with 0.5 N NaOH and 1% Triton-X 100 (Sigma). An aliquot of the cell lysate was added to 10 ml of Ultima Gold (Packard) and counted using a liquid scintillation counter (Packard model 19006A).
# [4] = parameters: species or system Sprague-Dawley rats; settings: rat, in vivo, po
# Experimental: Representative compounds were evaluated for their effect on glucose tolerance following oral administration at doses ranging from 0.005 mg/kg to 100 mg/kg. Normal male Sprague-Dawley rats were dosed with a test compound daily for five days, and were fasted overnight prior to days 1 and 5. Control animals were given ether vehicle only, or Glibenclamide (glyburide; N-[4-(β-)(2-methoxy-5-chlorobenzamido)ethyl)benzosulphonyl)-N'-cyclohexylurea]; 2 mg/kg/day). Blood was collected on day zero and on days one and five at 0, 0.5, 1, 1.5 and 2 hours after drug administration. Blood glucose concentrations were then measured in duplicate using standard glucose oxidase analysis. The samples were assayed using a Hitachi U-200 Spectrophotometer at a wavelength of 505 nm. The weight gain of each rat was also measured over the five day period, and all results were compared to both the negative control group (dosing with vehicle only) and the positive control group (dosing with Glibenclamide). […] Doses of drugs administered were minimised so as to reduce differences in weight gain whilst retaining hypoglycaemic activity. […]
# Each point represents the effect of each dose on the rats glucose tolerance or ability to gain weight, expressed as a percentage of the control (normal) response (where control=100% response). […]
# [5] = system: MCF-7 human mammary carcinoma cells; settings: Woodfork et al, 1995, cited from earlier work
# rat heart = settings: 1 μM, rat heart stimulated at 5 Hz; Kantor et al, 1987; cited from earlier work
# [6] = Kinetic/metabolite studies: HPLC analysis of plasma after oral administration; assay type: in vivo, Sprague-Dawley rats; settings: after oral administration, HPLC
# Experimental: Plasma samples were collected in order to test the correlation of plasma drug (or metabolite) concentration with hypoglycaemic activity, and to determine whether compounds of the invention were converted in vivo into active metabolites. The plasma levels of test compounds or metabolites also give an indication of rate of metabolism and kinetics of drug action.
# Blood samples collected from rats treated as above and collected at the same intervals were analysed using an ICI LC1150 HPLC system and a LC1210 UV detector at a wavelength of 227 nm. The HPLC system used a Merck LiChroCART 125-4 LiChrosphere 100 RP-18 HPLC and LiChrosphere 100 RP-18 guard columns. The mobile phase consisted of 70% acetonitrile and a 30% aqueous sodium phosphate buffer at pH 7.45 and was prepared using standard HPLC grade reagents and distilled water. To improve the resolution of peaks and separation of the compounds a gradient method was established where changes in the concentration of the required buffers and solvents, and the time at which these changes occur is outlined in Table 7. The volumes are expressed as percentages of the total flow rate, with the flow rate remaining constant at […].
# The data were acquired using the WinChrom Data Management system and were calibrated using stock solutions of the test compounds and Glibenclamide as an internal standard dissolved in 100% methanol
# Plasma (250 μL) collected from the rats were extracted into methanol (700 μL) and 50 μL of Glibenclamide (25 μg/ml). The mixture was then agitated with a vortex mixer for 15 sec and centrifuged for 10 min. The clear supernatant was then carefully aspirated for HPLC analysis.
# The results are outlined in Table 8 and show retention times (minutes) for the compounds and their metabolites as analysed by HPLC after oral administration in Sprague-Dawley rats. […] Glibenclamide is shown for comparison only, none of the metabolites observed with the test compounds correspond to metabolites of Glibenclamide.
structure (smiles),measurement,setting,value
"COc1ccc(Cl)cc1C(=O)NCCc1ccc(S(=O)(=O)NC(=O)NC2CCCCC2)cc1 [Glibenclamide, reference compound]","Change in Blood Glucose, 0 hours",[1]; 0 hours,0.0 mmol/L
same,"Change in Blood Glucose, 1 Hour",[1]; 1 hour,0.6 mmol/L
same,"Change in Blood Glucose, 2 Hours",[1]; 2 hours,-2.1 mmol/L
same,"Change in Blood Glucose, 3 Hours",[1]; 3 hours,-2.4 mmol/L
same,pIC50,[2],4.30
same,inhibition of thymidine uptake,[3],significant inhibition
same,weight gain over a five day period,[4],decreased their observed weight gain
same,accumulation at the G0/G1 phase in cell cycle distribution,[5],statistically significant accumulation at the G0/G1 phase
same,cell-cycle arrest,[5]; inhibition of KATP channels,reversible cell-cycle arrest
same,effect on ischaemia-induced ventricular arrhythmias / K+ loss,rat heart,prevent or reduce ischaemia-induced ventricular arrhythmias
same,Compound in plasma,[6],no
